Source: ChEMBL document CHEMBL5357082, “Identification and Optimization of Small Molecule Pyrazolopyrimidine TLR7 Agonists for Applications in Immuno-oncology” (ACS Med Chem Lett, 2024)

How the values were obtained:
[1] = Metabolic stability in mouse liver microsomes assessed as compound remaining at 0.5 uM incubated for 10 mins in presence of NADPH by UV absorbance based assay; format: ADME, Microsome; settings: read-out: Stability
Cytochrome P450 2C9 = Cytochrome P450 2C9 (Homo sapiens, UniProt P11712); assay: Inhibition of CYP2C9 (unknown origin); format: ADME
Toll-like receptor 7 [2] = biological target: T1, Toll-like receptor 7 (Homo sapiens, UniProt Q9NYK1); assay: Agonist activity at human TLR7 in HEK-Blue hTLR7 cells harboring SEAP reporter transgene incubated for 18 hrs by quanti-blue reagent based assay; format: cell-based
T1 sequence (Q9NYK1 whole entry): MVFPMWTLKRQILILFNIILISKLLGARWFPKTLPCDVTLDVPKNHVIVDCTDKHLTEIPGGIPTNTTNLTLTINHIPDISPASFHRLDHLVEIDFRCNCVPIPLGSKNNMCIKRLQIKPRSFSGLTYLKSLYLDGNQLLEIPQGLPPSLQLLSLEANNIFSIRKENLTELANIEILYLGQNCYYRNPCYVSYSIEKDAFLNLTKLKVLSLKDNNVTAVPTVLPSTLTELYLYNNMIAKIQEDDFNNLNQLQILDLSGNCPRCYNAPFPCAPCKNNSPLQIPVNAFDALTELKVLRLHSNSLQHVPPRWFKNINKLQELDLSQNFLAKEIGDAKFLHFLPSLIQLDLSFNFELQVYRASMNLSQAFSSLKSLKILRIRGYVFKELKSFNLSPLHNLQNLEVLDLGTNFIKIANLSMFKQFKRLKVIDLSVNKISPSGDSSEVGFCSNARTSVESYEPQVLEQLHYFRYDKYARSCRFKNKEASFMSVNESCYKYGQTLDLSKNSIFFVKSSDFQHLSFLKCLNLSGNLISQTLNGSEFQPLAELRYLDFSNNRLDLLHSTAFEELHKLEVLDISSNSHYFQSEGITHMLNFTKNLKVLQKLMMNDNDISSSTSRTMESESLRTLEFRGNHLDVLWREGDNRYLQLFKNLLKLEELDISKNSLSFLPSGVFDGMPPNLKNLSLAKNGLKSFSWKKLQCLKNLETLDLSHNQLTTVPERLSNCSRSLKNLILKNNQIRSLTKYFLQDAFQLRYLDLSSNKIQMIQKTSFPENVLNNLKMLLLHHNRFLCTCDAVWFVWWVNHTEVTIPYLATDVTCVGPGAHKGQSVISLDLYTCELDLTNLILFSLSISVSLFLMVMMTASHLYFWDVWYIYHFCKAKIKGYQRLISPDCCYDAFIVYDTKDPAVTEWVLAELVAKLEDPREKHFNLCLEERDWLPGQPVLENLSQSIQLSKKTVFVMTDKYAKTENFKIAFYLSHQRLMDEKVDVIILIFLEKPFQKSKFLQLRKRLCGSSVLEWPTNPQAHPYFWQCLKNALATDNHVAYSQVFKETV

Toll-like receptor 7 [3] = biological target: T2, Toll-like receptor 7 (Mus musculus, UniProt P58681); assay: Agonist activity at mouse TLR7
T2 sequence (P58681 whole entry): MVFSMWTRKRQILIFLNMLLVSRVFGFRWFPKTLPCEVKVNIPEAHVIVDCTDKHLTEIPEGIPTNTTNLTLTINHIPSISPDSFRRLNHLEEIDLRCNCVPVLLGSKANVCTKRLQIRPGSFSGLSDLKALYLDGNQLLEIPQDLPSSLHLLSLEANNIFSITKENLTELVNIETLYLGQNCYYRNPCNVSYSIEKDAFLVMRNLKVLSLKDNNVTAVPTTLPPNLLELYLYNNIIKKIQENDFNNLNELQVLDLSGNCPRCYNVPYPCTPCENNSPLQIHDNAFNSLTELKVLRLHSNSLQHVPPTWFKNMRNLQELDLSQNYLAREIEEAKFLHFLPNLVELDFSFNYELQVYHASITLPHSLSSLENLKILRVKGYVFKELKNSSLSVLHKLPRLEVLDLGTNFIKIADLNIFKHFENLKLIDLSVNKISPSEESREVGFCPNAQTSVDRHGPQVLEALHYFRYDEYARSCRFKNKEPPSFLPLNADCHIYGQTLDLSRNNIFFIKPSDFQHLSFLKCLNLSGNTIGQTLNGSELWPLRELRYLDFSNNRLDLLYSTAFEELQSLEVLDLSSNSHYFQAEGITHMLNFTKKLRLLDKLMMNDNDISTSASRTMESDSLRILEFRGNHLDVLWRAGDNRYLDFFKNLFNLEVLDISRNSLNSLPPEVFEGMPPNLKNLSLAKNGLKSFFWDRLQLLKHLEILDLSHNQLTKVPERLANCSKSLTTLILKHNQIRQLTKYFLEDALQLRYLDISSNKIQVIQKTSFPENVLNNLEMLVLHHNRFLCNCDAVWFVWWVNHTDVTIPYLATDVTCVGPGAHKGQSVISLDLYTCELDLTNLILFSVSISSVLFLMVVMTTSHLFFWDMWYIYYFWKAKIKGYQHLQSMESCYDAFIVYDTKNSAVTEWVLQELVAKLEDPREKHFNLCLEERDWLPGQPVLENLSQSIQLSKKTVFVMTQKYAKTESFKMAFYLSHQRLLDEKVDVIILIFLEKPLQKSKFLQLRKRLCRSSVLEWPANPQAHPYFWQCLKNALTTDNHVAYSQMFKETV

Cytochrome P450 2D6 = Cytochrome P450 2D6 (Homo sapiens, UniProt P10635); assay: Inhibition of CYP2D6 (unknown origin); format: ADME
Cytochrome P450 1A2 = biological target: T3, Cytochrome P450 1A2 (Homo sapiens, UniProt P05177); assay: Inhibition of CYP1A2 (unknown origin); format: ADME
T3 sequence (P05177 whole entry): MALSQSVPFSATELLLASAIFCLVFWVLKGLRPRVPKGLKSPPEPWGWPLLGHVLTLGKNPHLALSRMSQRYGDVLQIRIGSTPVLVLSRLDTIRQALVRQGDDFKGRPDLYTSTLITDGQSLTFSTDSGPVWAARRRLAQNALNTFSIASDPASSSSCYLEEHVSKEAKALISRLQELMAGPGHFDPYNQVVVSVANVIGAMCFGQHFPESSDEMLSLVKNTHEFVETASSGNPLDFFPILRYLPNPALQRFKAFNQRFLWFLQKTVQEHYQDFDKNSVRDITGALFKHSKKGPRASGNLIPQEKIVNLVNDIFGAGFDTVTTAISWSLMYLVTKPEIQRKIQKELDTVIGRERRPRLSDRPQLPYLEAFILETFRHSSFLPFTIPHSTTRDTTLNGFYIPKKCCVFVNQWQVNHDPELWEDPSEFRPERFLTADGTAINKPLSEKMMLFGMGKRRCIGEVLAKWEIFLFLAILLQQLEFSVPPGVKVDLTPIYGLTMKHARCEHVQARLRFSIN

[4] = Half life in nontumor bearing Balb/C mouse at 0.5 mg/kg; format: ADME, organism-based; settings: in vivo
Cytochrome P450 3A4 = Cytochrome P450 3A4 (Homo sapiens, UniProt P08684); assay: Inhibition of CYP3A4 (unknown origin) using BFC as substrate preincubated with compound followed by substrate addition at 30 mins; format: ADME
Sequence of Cytochrome P450 3A4 (P08684 whole entry): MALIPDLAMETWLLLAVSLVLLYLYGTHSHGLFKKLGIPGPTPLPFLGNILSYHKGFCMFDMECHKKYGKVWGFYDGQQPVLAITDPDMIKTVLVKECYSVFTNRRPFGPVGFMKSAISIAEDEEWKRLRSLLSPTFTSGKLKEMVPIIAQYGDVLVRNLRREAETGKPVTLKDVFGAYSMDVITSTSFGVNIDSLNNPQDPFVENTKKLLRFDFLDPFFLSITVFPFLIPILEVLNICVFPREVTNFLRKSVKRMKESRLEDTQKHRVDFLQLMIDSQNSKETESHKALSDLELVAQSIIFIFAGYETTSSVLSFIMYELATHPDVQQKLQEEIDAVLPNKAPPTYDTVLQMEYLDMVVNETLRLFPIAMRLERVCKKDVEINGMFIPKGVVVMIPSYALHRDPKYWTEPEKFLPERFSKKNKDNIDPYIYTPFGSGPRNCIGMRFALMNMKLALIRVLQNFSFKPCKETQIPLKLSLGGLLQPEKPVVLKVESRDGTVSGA

Sequence of Cytochrome P450 2D6 (P10635 whole entry): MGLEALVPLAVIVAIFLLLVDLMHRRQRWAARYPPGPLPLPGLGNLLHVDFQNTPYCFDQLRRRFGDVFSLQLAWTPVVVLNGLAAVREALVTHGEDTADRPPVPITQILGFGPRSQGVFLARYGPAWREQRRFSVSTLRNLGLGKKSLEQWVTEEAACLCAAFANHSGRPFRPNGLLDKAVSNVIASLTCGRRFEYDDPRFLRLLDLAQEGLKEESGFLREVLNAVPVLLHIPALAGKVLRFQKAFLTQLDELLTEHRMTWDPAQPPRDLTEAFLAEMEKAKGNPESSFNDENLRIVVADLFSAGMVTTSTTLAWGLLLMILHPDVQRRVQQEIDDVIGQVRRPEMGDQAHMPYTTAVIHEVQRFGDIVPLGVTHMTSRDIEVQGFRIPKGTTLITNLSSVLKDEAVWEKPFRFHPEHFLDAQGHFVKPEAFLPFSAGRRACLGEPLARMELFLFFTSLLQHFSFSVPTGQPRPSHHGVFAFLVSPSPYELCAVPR
Sequence of Cytochrome P450 2C9 (P11712 whole entry): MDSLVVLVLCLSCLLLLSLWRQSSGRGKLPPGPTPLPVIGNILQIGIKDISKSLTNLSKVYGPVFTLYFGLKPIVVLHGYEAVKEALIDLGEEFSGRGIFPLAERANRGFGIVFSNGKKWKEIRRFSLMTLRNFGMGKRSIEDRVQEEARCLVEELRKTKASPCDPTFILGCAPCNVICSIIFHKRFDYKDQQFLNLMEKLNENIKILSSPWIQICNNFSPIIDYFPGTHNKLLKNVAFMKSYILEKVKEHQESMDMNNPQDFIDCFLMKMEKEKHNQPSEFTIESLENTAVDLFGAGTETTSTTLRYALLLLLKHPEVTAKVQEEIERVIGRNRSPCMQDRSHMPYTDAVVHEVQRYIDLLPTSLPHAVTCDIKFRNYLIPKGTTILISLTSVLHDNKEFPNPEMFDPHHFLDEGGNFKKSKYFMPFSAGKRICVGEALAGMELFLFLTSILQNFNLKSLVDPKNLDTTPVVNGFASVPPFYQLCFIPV

remaining at 10 min, 0.5 µM [1]: 100%
IC50 (Cytochrome P450 2C9): > 20 µM
EC50 (Toll-like receptor 7 [2]): 0.013 µM
EC50 (Toll-like receptor 7 [3]): 0.027 µM
IC50 (Cytochrome P450 2D6): > 20 µM
IC50 (Cytochrome P450 1A2): > 20 µM
half-life [4]: 6.9 h
IC50 (Cytochrome P450 3A4): > 20 µM
Compound: CCC[C@@H](CCO)Nc1nc(N)nc2cnn(Cc3ncc(C4CCN(C5CCOCC5)CC4)cc3OC)c12
